# Columns and labels:
# Type in all cases: in vivo, Drosophila
# [1] = tested on: mushroom body structure in dfmr1 null fly brain; assay: Staining and analysis of mushroom body morphology; settings: for mushroom body defects of dfmr1 mutant adults (in words): 0- to 2-day-old adults developed on LF supplemented with drug at optimal viability dose; for brain structural abnormality (mushroom body formation) in treated dFmr1 flies (in words) / percentage of normal brains (mushroom body) after treatment: Example 2; for percentage of normal brains (mushroom body) after treatment: dFmr1 flies, 27% without treatment
# Excerpt: A striking morphological phenotype of dfmr1 deficiency in Drosophila involves structural abnormalities of the mushroom body in the fly brain. The mushroom body, important for Drosophila learning and memory, is an axon-like fiber structure composed of three paired neuronal lobes (the α, β, and γ lobes). In dfmr1 null flies, the β lobes, which normally terminate at the midline cleft, often cross through the midline. In addition, dfmr1 null flies also have missing or misdirected α and β lobes, as well as truncated or over-branched lobes. […] To test whether compounds identified in the viability screen could rescue the mushroom body morphology, 0- to 2-day-old dfmr1 mutant adults were examined that developed on LF supplemented with four of the nine compounds identified above (GABA, nipecotic acid, creatinine, and isopilocarpine).
# Brains from 0- to-2-day-old adults were dissected, fixed, and stained. Anti-Fascicilin II (ID4, Developmental Studies Hybridoma Bank) was used at 1:10 dilution and Alexa anti-mouse secondary antibody (Molecular probes) 1:100. Confocal microscopy was performed using a Leica Scanning laser confocal microscope. Neuronal lobe abnormalities were analyzed and scored by obtaining optical stacks of the α and β lobes as described.
# Futsch = assay: Quantitative Western analysis of Futsch protein in fly head lysates; settings: flies raised on LF with drug at effective dosage
# Excerpt: FIG. 3A illustrates a representative Western blot showing Futsch expression in w^1118, dfmr1^3+/−, and dfmr1^3−/− head lysates. Flies were raised on LF with or without drug supplements using the effective dosages. Heads from 0- to 2-day old adult flies were used to prepare protein lysates. β-actin was used as a loading control.
# FIG. 3B illustrates the quantification of relative Futsch protein level from multiple Western blots using Kodak Imaging System software. The quantifications were based on duplicate Western analyses obtained from triplicate collections of […] from two separate drug treatments (6 sets of samples total). The futsch levels were first normalized to β-actin levels, then plotted as the percentage of change of each treatment/genotype compared to w^1118 (no drug), which was set as 100%.
# Additionally, it was tested whether the same four compounds could rescue the biochemical phenotype of Futsch over-expression that is associated with dfmr1 deficiency. The mRNA of Futsch is normally bound and translationally repressed by dFmrp. Thus, loss of dFmrp results in excess Futsch translation.
# Quantitative Western analyses were performed. Briefly, 0- to 2-day-old adult Drosophila heads were obtained, and homogenized in lysis buffer (10 mM Tris (pH 7.5), 150 mM NaCl, 30 mM EDTA (pH 8.0), 0.5% Triton X-100, and 1× complete protease inhibitor (Boehringer Mannheim). 30 fly heads were collected per sample. 10 μg total protein lysates were subjected to SDS-PAGE electrophoresis on a 4%-20% gradient Tris-HCl gel (Bio-Rad). Monoclonal anti-22C10 against Futsch (1:500) was purchased from the Developmental Studies Hybridoma Bank (DSHB), University of Iowa. For the loading control, an antibody against […] (Abcam) was used at a final concentration of 0.8 μg/ml. The signals were quantified using the Kodak Imaging System software.
# dfmr1 null embryos = assay: Initial small molecule screen: pupae/adult recovery of dfmr1 null embryos on commercial food (CF); settings: 12 null embryos per vial, CF supplemented with 40 μM compound, 25° C., 10 to 15 days
# Excerpt: Since the rescue of dfmr1 null lethality is an easily scored phenotype, a relatively high throughput strategy was designed to screen chemical libraries for small molecules that can restore the viability of dfmr1 null flies raised on CF (FIG. 1D). In order to seed test vials with dfmr1 null embryos only, the dfmr1 mutation was balanced with a GFP-TM6C chromosome (w^1118; dfmr1^3/Kr: GFP, TM6C). This allowed sorting of the null dfmr1 mutants from other embryos by the absence of GFP fluorescence using a flow cytometry embryo sorter (COPAS SELECT). […]
# The Spectrum Collection™ compound library was obtained from MicroSource Discovery Systems, Inc. Drugs used in larger quantities for confirmation and subsequent analysis were obtained from Sigma (St. Louis, Mo.) or Tocris-Cookson (UK). […]
# (§1) For the initial screen, 12 dfmr13/dfmr13 (GFP−) embryos were placed in each well of a 96 well plate with CF+40 μM of individual drugs. 96-well plates were kept at 25° C. and the percentage of pupae and adults recovered was scored. […] Adult progeny were counted and the relative viability of homozygous null flies was scored as the percentage of viable adult progeny raised on CF+ drug compared to the progeny on LF alone.
# [2] = tested on: homozygous dfmr1-deficient flies; assay: Fly viability assay: rescue of homozygous dfmr1 flies on CF (JAZMIX) plus drug; settings: for recovery of homozygous dFmr1 flies: 0% on JAZMIX food alone
# Procedure: In particular, embodiments of the present disclosure include methods of screening compounds using a drosophila (fruit fly) based compound screen to identify drug candidates for the treatment of FMRP-loss related disorders.
# The homozygous embryos are placed into an appropriate container (e.g., a 96-well container) containing a food with a lethal amount of glutamate and with or without a compound from a library of drugs candidates. The embryos were incubated at certain conditions for a certain amount of time (e.g., at about 25° C. for about 10 days) to allow embryonic development. The efficacy of the drug candidate is determined by scoring the number of pupae formation or the emergence of adult flies after a certain time frame. Files or pupae that came out from food with a nonlethal amount of glutamate were used as positive control, and flies or pupae that came out from food with lethal amounts of glutamate without drugs were used as negative control.
# The separated homozygous embryos are then transferred to a regular fly culture vials or a 96-well container (e.g., 20 embryos per well) containing food with a lethal amount of glutamate with or without the drug (e.g., 300 μl of pre-mixed food and the drug). The embryos were incubated at 25° C. for about 10 days to allow embryonic development. The formation of pupae or adult flies can be directly quantified by visual inspection. Efficacy of drugs is determined by scoring the number of pupae formation or the emergence of adult flies after 10 days. Additional details regarding the active compositions and disorders are described in the Examples below.
# (§2) To determine the cause of the observed CF lethality of dfmr1-deficient flies, HPLC amino acid analyses was performed on aqueous extracts of CF and LF food preparations and noted that the CF contained 1.8-fold more glutamate than the LF (FIG. 4). Since this could result in excess glutamate signaling, exacerbating the consequences of dFmrp loss, it was next determined whether supplementing LF with additional glutamate could decrease the viability of dfmr1-deficient flies. […] Indeed, 10 μM MPEP added to the CF rescued the homozygous deficient flies to approximately 60% of their normal viability on LF (FIG. 1C).
# Fifteen of those compounds, as well as the MPEP-positive control, recovered pupal development from at least 25% of the seeded embryos (FIG. 5, Table 1). Each of these top 15 compounds underwent further validation using a larger-scale viability assay. Each vial was seeded with 100 embryos from dfmr1 heterozygous crosses, and adult progeny of both homozygous and heterozygous genotypes were counted 10 days later. Nine of the 15 compounds were validated and, for each of these, a dose-response analysis was performed to optimize the dosage (FIG. 5, Table 1). Using the optimal viability dose for each validated compound, it was explored whether other established phenotypes of dfmr1 deficiency are influenced by a selection of these compounds.
# as §1
# [3] = tested on: dfmr1 homozygous null progeny; assay: Viability of flies on laboratory food (LF) supplemented with glutamate; settings: glutamate added to LF, p<0.005
# Procedure: FIG. 1B illustrates dfmr1-deficient flies raised on LF are sensitive to supplemented glutamate. Embryos of w^1118, dfmr1^3+/− and dfmr1^3−/− were allowed to develop on LF supplemented with additional glutamate. Relative viability was calculated within each genotype as the percentage of viable adult progeny raised on LF supplemented with glutamate compared to progeny raised on LF alone. (For w^1118 only: anything above 100% was indicated as 100%). (Error bar indicate SEM; *=P<0.005).
# as §2
Compound,mushroom body defects of dfmr1 mutant adults (in words) [1],elevated Futsch protein level in dfmr1 null flies (in words) (Futsch),percentage of normal brains (mushroom body) after treatment [1] [%],other results
NCCCC(=O)O [GABA],significantly improved,did not significantly influence,–,–
Cc1cccc(C#Cc2ccccc2)n1 [MPEP],rescued,significantly reduced,–,"pupal development recovered, percentage of the seeded embryos (dfmr1 null embryos): at least 25%; viability of homozygous deficient flies relative to their normal viability on LF ([2]; 10 μM MPEP added to CF): approximately 60%; dfmr1^3−/− viability on CF (in words) ([2]; CF supplemented with MPEP (10 μM), FIG. 1C, P<0.005): improved"
CC[C@@H]1C(=O)OC[C@@H]1Cc1cncn1C [Pilocarpine nitrate],–,–,79,recovery of homozygous dFmr1 flies ([2]; 5 microM in JAZMIX food): 88.5%; brain structural abnormality (mushroom body formation) in treated dFmr1 flies (in words) [1]: significant suppression
CN1CC(=O)NC1=N [creatinine],–,–,85,recovery of homozygous dFmr1 flies ([2]; 40 microM in JAZMIX food): 123.2%
N[C@@H](CCC(=O)O)C(=O)O [glutamate],–,–,–,viability of dfmr1 homozygous null progeny [3]: dose-dependent decline
CC[C@H]1C(=O)OC[C@@H]1Cc1cncn1C [isopilocarpine],significantly improved,completely rescued,–,–
O=C(O)C1CCCNC1 (centres unmarked) [nipecotic acid],significantly improved,did not significantly influence,73,recovery of homozygous dFmr1 flies ([2]; 40 microM in JAZMIX food): 84%; brain structural abnormality (mushroom body formation) in treated dFmr1 flies (in words) [1]: significant suppression

# — patent US20150174112A1, “COMPOSITIONS FOR TREATING FRAGILE X AND OTHER DISORDERS METHODS OF USE THEREOF, AND SCREENING FOR COMPOUNDS FOR FRAGILE X AND OTHER DISORDERS” (EMORY UNIVERSITY, priority 2005, published 2015)
